In assay [1] the target is T1, Avi-KRAS G12D (1-169) GppNHp/RAF1 RBD-3xFLAG (52-151) (Homo sapiens, UniProt P01116, G12D).
T1 construct: Avi-KRAS G12D (1-169)
The assay can be described thus: Raf1-KRAS G12D-GppNHP disruption HTRF assay (Biological Example 1). In kind it is binding. To be noted: KRAS G12D-GppNHp/RAF1 RBD HTRF. In a few lines: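 HTRF PPI disruption; buffer 50 mM Tris pH 7.5, 100 mM NaCl, 5 mM MgCl2, 0.1% BSA, 0.01% Tween, 10% DMSO. Protein mix 1 h RT shaking, reagent mix 1 h RT shaking. Data as % activity vs DMSO (100%).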
For orientation: In TR-FRET formats the signal depends on donor and acceptor labels being close together.

Assay [2] deals with SW620 cells (KRAS G12V). The assay can be described thus: Cell-based pERK HTRF assay in SW620 cell (Biological Example 4). In a few lines:
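Read-out: HTRF pERK signal (excitation 320 nm, emission 615 nm) from lysates of SW620 cells after 4 h compound exposure. Dose range was 9 points, half-log steps from 1 μM, in 0.25% DMSO; antibody incubation ran 4–24 h at room temperature.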

Assay [3] addresses T2, Avi-KRAS G12D (2-169) GTP/RAF1 RBD-3xFLAG (51-131) (Homo sapiens, UniProt P01116, G12D).
T2 construct: Avi-KRAS G12D (2-169)
Nature of the assay: Raf1-KRAS G12D-GTP disruption HTRF assay (Biological Example 3). In kind it is binding. Particulars: KRAS G12D, GTP-loaded. In a few lines:
(§1)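 Each KRAS-GTP/RAF1 RBD complex at 50 nM, with 75 nM 3xFLAG-RAF1 RBD (51-131)-Avi, in 50 mM Tris pH 7.5, 100 mM NaCl, 5 mM MgCl2, 0.1% BSA, 0.01% Tween 20, 10% DMSO. Compounds titrated from 30 μM, 10-point 3x series; 1 h at room temperature with shaking. HTRF read, activity as percent of DMSO.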

The target in assay [4] is T3, Avi-KRAS G12C (2-169) GTP/RAF1 RBD-3xFLAG (51-131) (Homo sapiens, UniProt P01116, G12C).
T3 construct: Avi-KRAS G12C (2-169)
Nature of the assay: Raf1-KRAS G12C-GTP disruption HTRF assay (Biological Example 3). In kind it is binding. Particulars: KRAS G12C, GTP-loaded. In a few lines: as §1

In assay [5] the target is T4, Avi-KRAS WT (2-169) GTP/RAF1 RBD-3xFLAG (51-131) (Homo sapiens, UniProt P01116).
T4 construct: Avi-KRAS WT (2-169)
Nature of the assay: Raf1-KRAS WT-GTP disruption HTRF assay (Biological Example 3). In kind it is binding. To be noted: KRAS WT, GTP-loaded. Put shortly: as §1

[6] abbreviates: SW620 (KRAS G12V) cells, pERK HTRF.
Where [7] appears, read: Homo sapiens, SW-620, SW620 (KRAS G12V) cells.
Where [8] appears, read: Homo sapiens, SW-620, SW620 (KRAS G12V) cells, pERK HTRF.

SMILES strings stand for the structures. pIC50: −log10 of the molar value. Bounds are passed on as bounds.

The term pIC50 denotes the negative decadic logarithm of the IC50, by convention in mol/L. A higher pIC50 goes with a low IC50.

T1 sequence (P01116 1-169 isoform P01116-2 G12D): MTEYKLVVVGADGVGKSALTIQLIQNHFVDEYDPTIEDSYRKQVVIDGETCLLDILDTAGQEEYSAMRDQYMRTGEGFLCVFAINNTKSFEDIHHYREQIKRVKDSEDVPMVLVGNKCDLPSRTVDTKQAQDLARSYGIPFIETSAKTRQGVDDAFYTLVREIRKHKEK
T3 sequence (P01116 2-169 isoform P01116-2 G12C): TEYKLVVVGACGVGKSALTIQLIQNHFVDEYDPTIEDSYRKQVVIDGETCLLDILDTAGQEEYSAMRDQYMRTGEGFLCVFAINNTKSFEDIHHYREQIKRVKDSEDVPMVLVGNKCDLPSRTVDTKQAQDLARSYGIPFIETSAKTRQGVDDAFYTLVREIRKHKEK
T4 sequence (P01116 2-169 isoform P01116-2): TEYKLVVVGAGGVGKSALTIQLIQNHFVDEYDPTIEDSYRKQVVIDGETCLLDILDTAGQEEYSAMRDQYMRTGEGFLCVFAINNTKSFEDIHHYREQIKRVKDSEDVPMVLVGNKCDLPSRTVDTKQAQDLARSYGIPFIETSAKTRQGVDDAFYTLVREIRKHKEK
T2 sequence (P01116 2-169 isoform P01116-2 G12D): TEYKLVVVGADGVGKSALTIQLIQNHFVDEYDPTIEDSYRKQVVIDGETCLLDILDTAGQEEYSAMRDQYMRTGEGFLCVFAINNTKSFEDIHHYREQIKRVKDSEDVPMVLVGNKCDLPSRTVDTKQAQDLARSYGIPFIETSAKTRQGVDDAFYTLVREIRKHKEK

Turning to `CCN(c1nc(OC[C@@]23CCCN2C[C@H](F)C3)nc2c(F)c(-c3ccc(F)c4sc(N)c(C#N)c34)c(C(F)(F)F)cc12)[C@H]1CCN(C(=O)C(C)C)C1` (atropisomer, axis not shown) [Compound 468], the pIC50 in assay [1] is below 5.00; in assay [2] (setting [6]), below 6.00.
For the compound `CCN(c1nc(OC[C@@]23CCCN2C[C@H](F)C3)nc2c(F)c(-c3ccc(F)c4sc(N)c(C#N)c34)c(C(F)(F)F)cc12)[C@H]1CCS(=O)(=O)C1` (atropisomer, axis not shown) [Compound 492], the pIC50 in assay [1] and in assay [2] (setting [6]) was above 7.00 in each case.
In the case of `CN(C)C(=O)[C@@H]1CC[C@@H](N(C)c2nc(OC[C@@]34CCCN3C[C@H](F)C4)nc3c(F)c(-c4ccc(F)c5sc(N)c(C#N)c45)c(C(F)(F)F)cc23)C1` (atropisomer, axis not shown) [Compound 512], the pIC50 in assay [1] was 6.00 to 7.00; in assay [3], 6.00 to 7.00; in assay [4], 6.00 to 7.00; in assay [5] it was 6.00 to 7.00; in assay [2] (setting [7]), above 7.00; in assay [2] (setting [8]) it was above 7.00.
For `CCN(c1nc(OC[C@@]23CCCN2C[C@H](F)C3)nc2c(F)c(-c3ccc(F)c4sc(N)c(C#N)c34)c(C(F)(F)F)cc12)[C@H]1C[C@@H]2COC(=O)N2C1` (atropisomer, axis not shown) [Compound 519], the pIC50 in assay [1] was above 7.00; in assay [3] it was at least 7.00; in assay [4], 6.00 to 7.00; in assay [5], 6.00 to 7.00; in assay [2] (setting [7]), above 7.00; in assay [2] (setting [8]), above 7.00.
Consider `CCC(=O)N1CC[C@@H](N(CC)c2nc(OC[C@@]34CCCN3C[C@H](F)C4)nc3c(F)c(-c4ccc(F)c5sc(N)c(C#N)c45)c(C(F)(F)F)cc23)[C@H]1C` (atropisomer, axis not shown) [Compound 523], for which the pIC50 is above 7.00 in assay [1]; at least 7.00 in assay [3]; at least 7.00 in assay [4]; at least 7.00 in assay [5]; above 7.00 in assay [2] (setting [7]); above 7.00 in assay [2] (setting [6]).
With `CCN(c1nc(OC[C@@]23CCCN2C[C@H](F)C3)nc2c(F)c(-c3ccc(F)c4sc(N)c(C#N)c34)c(C(F)(F)F)cc12)[C@@H]1CCN(C(=O)C2CC2)[C@@H]1C` (atropisomer, axis not shown) [Compound 524], the pIC50 in assay [1] is above 7.00; in assay [3] it was at least 7.00; in assay [4] it was 6.00 to 7.00; in assay [5], at least 7.00; in assay [2] (setting [7]), above 7.00; in assay [2] (setting [6]), above 7.00.
As for `CCN(c1nc(OC[C@@]23CCCN2C[C@H](F)C3)nc2c(F)c(-c3ccc(F)c4sc(N)c(C#N)c34)c(C(F)(F)F)cc12)[C@@H]1C[C@@H](C)N(C(C)=O)C1` (atropisomer, axis not shown) [Compound 527], the pIC50 is 6.00 to 7.00 in assay [1]; 6.00 to 7.00 in assay [3]; 6.00 to 7.00 in assay [4]; 6.00 to 7.00 in assay [5]; above 7.00 in assay [2] (setting [7]); above 7.00 in assay [2] (setting [8]).
As to `CCN(c1nc(OC[C@@]23CCCN2C[C@H](F)C3)nc2c(F)c(-c3ccc(F)c4sc(N)c(C#N)c34)c(C(F)(F)F)cc12)[C@@H]1C[C@H]2CCC(=O)N2C1` (atropisomer, axis not shown) [Compound 532], the negative logarithm of the IC50 (pIC50) in assay [1] was 6.00 to 7.00; in assay [3], 6.00 to 7.00; in assay [4] it was 6.00 to 7.00; in assay [5], 6.00 to 7.00; in assay [2] (setting [7]), above 7.00; in assay [2] (setting [8]), above 7.00.
With `CCC(=O)N1C[C@H](N(CC)c2nc(OC[C@@]34CCCN3C[C@H](F)C4)nc3c(F)c(-c4ccc(F)c5sc(N)c(C#N)c45)c(C(F)(F)F)cc23)C[C@@H]1C` (atropisomer, axis not shown) [Compound 533], the pIC50 in assay [1] is 6.00 to 7.00; in assay [3] it was 6.00 to 7.00; in assay [4], 6.00 to 7.00; in assay [5] it was 6.00 to 7.00; in assay [2] (setting [7]) it was above 7.00; in assay [2] (setting [8]), above 7.00.
In the case of `CCN(c1nc(OC[C@@]23CCCN2C[C@H](F)C3)nc2c(F)c(-c3ccc(F)c4sc(N)c(C#N)c34)c(C(F)(F)F)cc12)[C@@H]1C[C@H](C)N(C(C)=O)C1` (atropisomer, axis not shown) [Compound 534], the pIC50 is 6.00 to 7.00 in assay [1]; 6.00 to 7.00 in assay [3]; 6.00 to 7.00 in assay [4]; 6.00 to 7.00 in assay [5]; above 7.00 in assay [2] (setting [7]); above 7.00 in assay [2] (setting [8]).
Turning to `CCN(c1nc(OC[C@@]23CCCN2C[C@H](F)C3)nc2c(F)c(-c3ccc(F)c4sc(N)c(C#N)c34)c(C(F)(F)F)cc12)[C@H]1C[C@H](C)N(C(=O)COC)C1` (atropisomer, axis not shown) [Compound 538], the pIC50 in assay [1] is above 7.00; in assay [3], at least 7.00; in assay [4], at least 7.00; in assay [5], 6.00 to 7.00; in assay [2] (setting [7]) it was above 7.00; in assay [2] (setting [8]), above 7.00.
Take `CCN(c1nc(OC[C@@]23CCCN2C[C@H](F)C3)nc2c(F)c(-c3ccc(F)c4sc(N)c(C#N)c34)c(C(F)(F)F)cc12)[C@H]1C[C@H](C)N(C(=O)C2COC2)C1` (atropisomer, axis not shown) [Compound 539]: the negative logarithm of the IC50 (pIC50) in assay [1] is above 7.00; in assay [3], 6.00 to 7.00; in assay [4] it was 6.00 to 7.00; in assay [5], 6.00 to 7.00; in assay [2] (setting [7]), above 7.00; in assay [2] (setting [8]), above 7.00.
For the compound `CCN(c1nc(OC[C@@]23CCCN2C[C@H](F)C3)nc2c(F)c(-c3ccc(F)c4sc(N)c(C#N)c34)c(C(F)(F)F)cc12)[C@H]1CCN(C(=O)N(C)C)C1` (atropisomer, axis not shown) [Compound 540, (3S)-3-[[7-(2-amino-3-cyano-7-fluoro-benzothiophen-4-yl)-8-fluoro-2-[[(2R,8S)-2-fluoro-1,2,3,5,6,7-hexahydropyrrolizin-8-yl]methoxy]-6-(trifluoromethyl)quinazolin-4-yl]-ethyl-amino]-N,N-dimethyl-pyrrolidine-1-carboxamide], the pIC50 is at least 7.00 in assay [3], at least 7.00 in assay [4], 6.00 to 7.00 in assay [5] and above 7.00 in assay [2] (setting [7]).
On to `CCN(c1nc(OC[C@@]23CCCN2C[C@H](F)C3)nc2c(F)c(-c3ccc(F)c4sc(N)c(C#N)c34)c(C(F)(F)F)cc12)[C@H]1CCN(C(=O)OC)C1` (atropisomer, axis not shown) [Compound 541, methyl(3S)-3-[[7-(2-amino-3-cyano-7-fluoro-benzothiophen-4-yl)-8-fluoro-2-[[(2R,8S)-2-fluoro-1,2,3,5,6,7-hexahydropyrrolizin-8-yl]methoxy]-6-(trifluoromethyl)quinazolin-4-yl]-ethyl-amino]pyrrolidine-1-carboxylate], for which the pIC50 in assay [1] was above 7.00; in assay [3] it was at least 7.00; in assay [4] it was at least 7.00; in assay [5], 6.00 to 7.00; in assay [2] (SW620 (KRAS G12V) cells) it was above 7.00; in assay [2] (setting [6]), above 7.00.
On to `CCN(c1nc(OC[C@@]23CCCN2C[C@H](F)C3)nc2c(F)c(-c3ccc(F)c4sc(N)c(C#N)c34)c(C(F)(F)F)cc12)[C@H]1CCN(C(=O)c2ccon2)C1` (atropisomer, axis not shown) [Compound 554], for which the pIC50 in assay [1] was above 7.00; in assay [3], at least 7.00; in assay [4] it was 6.00 to 7.00; in assay [5] it was 6.00 to 7.00; in assay [2] (setting [7]) it was above 7.00; in assay [2] (setting [8]), above 7.00.
Take `CCOC(=O)N1CC[C@H](N(CC)c2nc(OC[C@@]34CCCN3C[C@H](F)C4)nc3c(F)c(-c4ccc(F)c5sc(N)c(C#N)c45)c(C(F)(F)F)cc23)C1` [Compound 467]: the pIC50 in assay [1] and in assay [2] (setting [8]) was above 7.00 throughout.
As for `CCN(c1nc(OC[C@@]23CCCN2C[C@H](F)C3)nc2c(F)c(-c3ccc(F)c4sc(N)c(C#N)c34)c(C(F)(F)F)cc12)[C@H]1C[C@H](C)N(C(=O)C2CC2)C1` [Compound 470], the pIC50 in assay [1] and in assay [2] (setting [8]) was above 7.00 each time.
As to `Cc1cc2n(n1)CCN(c1nc(OCC34CCCN3CC(F)C4)nc3c(F)c(-c4ccc(F)c5sc(N)c(C#N)c45)c(C(F)(F)F)cc13)C2` (stereo not shown) [Compound 484], the values for the pIC50 in assay [1] and in assay [2] (setting [8]) were 5.00 to 6.00 and above 7.00, respectively.
With `N#Cc1c(N)sc2c(F)ccc(-c3c(C(F)(F)F)cc4c(N5CCn6nc(N7CCOCC7)cc6C5)nc(OC[C@@]56CCCN5C[C@H](F)C6)nc4c3F)c12` [Compound 485], the pIC50 was 5.00 to 6.00 in assay [1] and above 7.00 in assay [2] (setting [8]).

Values taken from US20260042764A1, “COMPOSITIONS AND METHODS FOR INHIBITION OF KRAS” (TheRas, Inc., priority 2022, published 2026).
